Test results: PMC7720687 (ERJ Open Research, 2020)
pIC50: −log10 of the molar value.

Experiments:
[1] = target: T1, epithelial sodium channel (ENaC) (Homo sapiens, UniProt P37088+P51168+P51170); assay: Ussing chamber, amiloride-sensitive short-circuit current in NCI-H441 monolayers; type: cell-based
T1 sequence (P37088 1-669): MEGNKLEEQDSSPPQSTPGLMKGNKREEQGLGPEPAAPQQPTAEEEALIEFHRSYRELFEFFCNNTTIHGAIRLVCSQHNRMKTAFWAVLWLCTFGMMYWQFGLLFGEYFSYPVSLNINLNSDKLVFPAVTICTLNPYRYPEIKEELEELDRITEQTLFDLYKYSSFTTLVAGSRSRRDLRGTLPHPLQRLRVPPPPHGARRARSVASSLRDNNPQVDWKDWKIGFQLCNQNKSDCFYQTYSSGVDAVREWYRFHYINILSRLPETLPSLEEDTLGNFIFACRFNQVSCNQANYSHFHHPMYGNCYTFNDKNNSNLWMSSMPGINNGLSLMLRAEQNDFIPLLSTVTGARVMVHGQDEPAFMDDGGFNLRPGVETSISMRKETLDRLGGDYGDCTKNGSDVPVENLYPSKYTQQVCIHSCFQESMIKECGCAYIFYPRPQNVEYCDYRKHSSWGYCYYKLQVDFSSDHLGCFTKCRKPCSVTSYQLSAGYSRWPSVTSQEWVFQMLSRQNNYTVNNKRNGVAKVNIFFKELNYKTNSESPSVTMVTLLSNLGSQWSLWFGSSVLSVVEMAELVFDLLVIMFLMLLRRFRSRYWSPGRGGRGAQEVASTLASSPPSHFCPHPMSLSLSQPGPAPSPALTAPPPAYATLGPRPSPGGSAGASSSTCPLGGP
T1 sequence (P51168 1-640): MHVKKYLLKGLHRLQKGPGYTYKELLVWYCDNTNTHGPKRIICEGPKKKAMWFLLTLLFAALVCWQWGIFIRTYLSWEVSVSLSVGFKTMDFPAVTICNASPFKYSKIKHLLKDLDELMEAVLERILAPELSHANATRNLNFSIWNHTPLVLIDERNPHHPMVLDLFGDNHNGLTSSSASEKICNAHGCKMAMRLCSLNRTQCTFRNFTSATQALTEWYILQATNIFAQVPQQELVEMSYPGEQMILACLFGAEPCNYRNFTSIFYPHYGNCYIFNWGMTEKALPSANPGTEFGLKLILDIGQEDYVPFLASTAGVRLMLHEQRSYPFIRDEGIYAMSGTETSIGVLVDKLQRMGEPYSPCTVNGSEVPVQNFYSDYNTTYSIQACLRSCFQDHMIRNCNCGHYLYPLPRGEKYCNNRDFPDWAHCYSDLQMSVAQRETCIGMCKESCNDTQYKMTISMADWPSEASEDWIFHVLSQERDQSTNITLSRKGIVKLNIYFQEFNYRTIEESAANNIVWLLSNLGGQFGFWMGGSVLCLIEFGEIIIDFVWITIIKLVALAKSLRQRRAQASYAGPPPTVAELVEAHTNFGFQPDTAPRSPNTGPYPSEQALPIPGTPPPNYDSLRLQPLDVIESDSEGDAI
T1 sequence (P51170 1-649): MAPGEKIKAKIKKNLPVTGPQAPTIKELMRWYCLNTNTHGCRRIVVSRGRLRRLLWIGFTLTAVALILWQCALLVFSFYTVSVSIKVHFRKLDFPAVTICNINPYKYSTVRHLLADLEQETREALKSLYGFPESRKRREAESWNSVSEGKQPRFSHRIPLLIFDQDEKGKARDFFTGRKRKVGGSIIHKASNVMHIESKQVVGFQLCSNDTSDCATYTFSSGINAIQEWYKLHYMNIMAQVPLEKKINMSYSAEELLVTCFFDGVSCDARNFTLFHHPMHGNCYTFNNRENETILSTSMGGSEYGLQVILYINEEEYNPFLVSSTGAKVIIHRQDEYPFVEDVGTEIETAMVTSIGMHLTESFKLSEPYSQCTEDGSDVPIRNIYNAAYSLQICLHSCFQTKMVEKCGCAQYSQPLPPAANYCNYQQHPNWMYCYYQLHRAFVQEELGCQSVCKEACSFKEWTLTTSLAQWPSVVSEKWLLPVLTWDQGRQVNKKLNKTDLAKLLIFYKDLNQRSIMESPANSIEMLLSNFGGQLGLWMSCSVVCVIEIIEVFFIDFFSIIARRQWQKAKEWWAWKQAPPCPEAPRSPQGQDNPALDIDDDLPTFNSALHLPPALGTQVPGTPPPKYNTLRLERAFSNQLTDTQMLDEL

[2] = target: T2, epithelial sodium channel (ENaC) (Mus musculus, UniProt Q61180+Q9WU38+Q9WU39); assay: Ussing chamber, amiloride-sensitive short-circuit current in M1 monolayers; type: cell-based
T2 sequence (Q61180 1-699): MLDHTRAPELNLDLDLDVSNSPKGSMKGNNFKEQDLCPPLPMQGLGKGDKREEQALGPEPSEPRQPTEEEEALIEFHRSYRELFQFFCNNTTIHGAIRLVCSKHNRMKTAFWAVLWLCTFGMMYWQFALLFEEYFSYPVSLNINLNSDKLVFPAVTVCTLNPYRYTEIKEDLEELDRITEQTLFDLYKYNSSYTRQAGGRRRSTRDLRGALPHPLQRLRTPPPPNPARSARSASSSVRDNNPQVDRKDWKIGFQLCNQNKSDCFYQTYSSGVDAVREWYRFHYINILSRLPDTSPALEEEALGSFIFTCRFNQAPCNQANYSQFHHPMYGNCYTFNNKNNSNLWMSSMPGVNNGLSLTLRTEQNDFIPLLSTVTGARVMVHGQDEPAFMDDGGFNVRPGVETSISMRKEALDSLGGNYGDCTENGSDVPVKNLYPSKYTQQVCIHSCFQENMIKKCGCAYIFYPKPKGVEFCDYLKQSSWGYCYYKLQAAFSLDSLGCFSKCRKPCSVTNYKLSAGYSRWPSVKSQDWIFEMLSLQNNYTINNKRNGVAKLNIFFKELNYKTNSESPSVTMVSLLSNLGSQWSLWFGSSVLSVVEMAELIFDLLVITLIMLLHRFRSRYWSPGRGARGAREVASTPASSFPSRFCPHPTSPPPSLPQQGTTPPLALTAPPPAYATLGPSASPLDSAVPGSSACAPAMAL
T2 sequence (Q9WU38 1-638): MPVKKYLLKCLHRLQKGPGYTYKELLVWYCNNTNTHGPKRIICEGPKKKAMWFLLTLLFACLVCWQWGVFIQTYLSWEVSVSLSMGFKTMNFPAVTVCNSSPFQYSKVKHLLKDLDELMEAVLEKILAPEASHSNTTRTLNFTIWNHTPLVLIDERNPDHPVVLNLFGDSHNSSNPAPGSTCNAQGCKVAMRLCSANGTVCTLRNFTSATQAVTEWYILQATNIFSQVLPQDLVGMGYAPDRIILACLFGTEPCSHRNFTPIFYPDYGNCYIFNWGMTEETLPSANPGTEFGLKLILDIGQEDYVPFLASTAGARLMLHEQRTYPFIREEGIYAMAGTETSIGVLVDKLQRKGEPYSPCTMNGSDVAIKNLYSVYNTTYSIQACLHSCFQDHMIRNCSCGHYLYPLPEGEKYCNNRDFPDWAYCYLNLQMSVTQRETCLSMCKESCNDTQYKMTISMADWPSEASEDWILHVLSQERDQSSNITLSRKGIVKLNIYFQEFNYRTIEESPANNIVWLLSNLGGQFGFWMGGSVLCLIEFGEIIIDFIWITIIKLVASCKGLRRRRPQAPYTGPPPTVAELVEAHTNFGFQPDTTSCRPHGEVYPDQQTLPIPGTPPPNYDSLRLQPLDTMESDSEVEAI
T2 sequence (Q9WU39 1-655): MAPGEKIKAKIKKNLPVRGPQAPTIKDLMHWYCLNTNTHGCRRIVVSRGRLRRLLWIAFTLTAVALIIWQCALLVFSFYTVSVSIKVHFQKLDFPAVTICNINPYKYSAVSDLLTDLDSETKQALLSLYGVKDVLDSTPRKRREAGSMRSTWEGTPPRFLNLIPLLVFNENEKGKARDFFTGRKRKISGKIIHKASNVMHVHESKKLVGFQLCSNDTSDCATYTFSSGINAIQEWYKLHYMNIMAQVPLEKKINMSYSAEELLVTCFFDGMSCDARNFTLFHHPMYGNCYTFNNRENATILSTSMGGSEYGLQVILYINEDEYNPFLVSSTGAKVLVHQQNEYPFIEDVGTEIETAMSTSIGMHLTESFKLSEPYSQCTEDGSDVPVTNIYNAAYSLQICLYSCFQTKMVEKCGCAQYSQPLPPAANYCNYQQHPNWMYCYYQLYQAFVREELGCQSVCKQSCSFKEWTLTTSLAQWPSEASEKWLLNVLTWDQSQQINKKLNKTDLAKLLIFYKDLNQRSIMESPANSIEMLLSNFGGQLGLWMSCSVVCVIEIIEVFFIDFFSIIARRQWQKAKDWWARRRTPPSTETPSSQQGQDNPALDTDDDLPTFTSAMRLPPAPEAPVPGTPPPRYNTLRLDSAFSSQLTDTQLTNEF

Substance: BI 1265162
- pIC50 [1]: 8.10
- pIC50 [2]: 8.52
